Three compounds from ChEMBL document CHEMBL1139711, “A novel oxazine ring closure reaction affording (Z)-((E)-2-styrylbenzo[b]furo[3,2-d][1,3]oxazin-4-ylideno)acetaldehydes and their anti-osteoclastic bone resorption activity” (Bioorg Med Chem Lett, 2006) can be followed below.

SMILES strings stand for the structures. Active and inactive are the calls of the source. No cut-off for these calls is given here.

The experiment has as its system Osteoclast. Nature of the experiment: Bone resorption activity assessed as inhibition of PGE2-stimulated pit formation in ddY mouse osteoclasts. It is filed as functional, cell-based.

As to `C[C@]12CC[C@@H]3c4ccc(O)cc4CC[C@H]3[C@@H]1CC[C@@H]2O`, the result was Active.

Regarding `CCOC(=O)/C=C/C=C1\OC(/C=C/c2ccccc2)=Nc2c1oc1ccc(Br)cc21`, the result was Active.

With `O=C/C=C1\OC(/C=C/c2ccccc2)=Nc2c1oc1ccc(Br)cc21`, the result was inactive.
